Data taken from US8063225B2, “Tricyclic compound derivatives useful in the treatment of neoplastic diseases, inflammatory disorders and immunomodulatory disorders” (Chembridge Corporation, priority 2006, dated 2011).

What was measured:
Ba/F3 = assay: Cell proliferation inhibition, Cell Titer-Glo, Ba/F3; type: cell-based; conditions: Mus musculus, BaF3; cell proliferation assay, Ba/F3 cells
Source text: (§1) IGF1R and other tyrosine kinase inhibitors can inhibit the proliferation of certain cancer cell lines indicating their possible therapeutic utility for treating the corresponding cancer types. Cancer cell lines of interest and control normal lines, including CHO, HEK293, BA/F3, COLO205, PC3, DU145, MCF7, Panc1, ACHN, Hep G2, H460, K562, TT, U87-MG, CAOV-3, SK-MEL5, Karpas 299 and human multiple myeloma cell lines H929, MM1s, MM1r, UTMC2, CPM2, KMS11, My5, KMS12PE, My7, JJN3, KMS18, U266, SKMM2, RPMI-8226 are plated in white, clear-bottomed 384-well cell culture plates at 2500-5000 cells per well and supplied with dilutions of tested compounds After a desired period of time (typically 3 days), the number of viable cells is quantitated by using Cell Titer-Glo Luminescent Cell Viability Assay (Promega), a cell proliferation assay system based on detection of total amount of ATP present as a measure of cell metabolic activity. The plated cells are mixed with the Cell Titer-Glo developing reagent and counted in a luminescence multiwell plate reader according to the standard manufacturer's protocol to generate IC50 curves for cell proliferation inhibition. Results are typically reported as percent of growth (% viability =(OD72h(compound)−ODday0))/(OD72h(no compound)−ODday0). Alternatively, viable cells are quantitated by using the conventional colorimetric MTT assay. The MTT assay is based on the cleavage of the yellow tetrazolium salt MTT to purple formazan crystal by metabolic active cells. The formazan is then solubilized, and the concentration determined by optical density at 570 nm. The cells plated and incubated with a compound as described above are supplemented with the solution of MTT and incubated for 2-3 hours. The growth medium is removed and dimethyl sulfoxide is added into each well to dissolve the formazan. The absorbance is measured on an ELISA plate reader with a test wavelength of 570 nm and a background subtraction wavelength of 630 nm to obtain sample signal (OD570-OD630). […] The results are reported in terms of IC50 value for a particular compound and a cell line in the standard 3-day proliferation assay using Cell Titer-Glo. […] The results are reported in terms of IC50 value for a particular compound and a cell line in the standard 3-day proliferation assay using MTT assay.

Jak2 = target: T1, Jak2 (Homo sapiens, UniProt O60674); assay: Tyrosine kinase assay (Kinase-Glo or AlphaScreen), Jak2; conditions: biochemical tyrosine kinase assay
T1 construct: 6×His- or GST-tagged kinase domain fragments of the corresponding RTKs expressed in baculovirus system; host or cells: baculovirus system
Method: (§2) To determine inhibition of several tyrosine kinases, such as IGF1R, InsR, Alk, TrkA and Jak2, kinase assays are conducted using either Kinase-Glo (Promega) or AlphaScreen (PerkinElmer) kinase assay platforms. The Kinase-Glo Luminescent Kinase Assay is a homogeneous method for measuring kinase activity by determining the amount of ATP remaining after a kinase reaction. The luminescent signal is proportional to the amount of ATP and inversely proportional to the amount of kinase activity. Tyrosine kinase PT66 AlphaScreen Assay is a high-sensitivity homogeneous, anti-phosphotyrosine antibody-mediated luminescent proximity method measuring, incorporation of phosphate in synthetic poly(Glu-Tyr) substrate. The kinase preparations used consist of purified recombinant, 6×His- or GST-tagged kinase domain fragments of the corresponding RTKs expressed in baculovirus system.
(§3) The IGF1R tyrosine kinase is assayed in Kinase-Glo ATP depletion assay using the synthetic polymer poly(Glu-Tyr, 4:1) (Sigma Chemicals) as a phosphoacceptor substrate. Each reaction mixture consists of a total volume of 10 μl and contains 40 ng of the enzyme, 5 μg of poly(Glu-Tyr), 10 μM of ATP and variable concentrations of test compounds. The mixtures also contain 50 mM Tris-HCl, pH 7.5; 5 mM MgCl2; 5 mM MnCl2; 2 mM DTT and 0.01% Tween 20. The reaction mixtures are incubated at 37° C. for 60 minutes and residual concentration of ATP in the mixture is determined by adding luciferase-containing Kinase-Glo (Promega) development reagent and counting luminescence levels using Fusion Universal Microplate Analyzer (PerkinElmer). Tested compounds are dissolved in dimethyl sulfoxide to a stock concentration of 10 mM and are typically evaluated in the assay at eight concentrations in 1 nM to 20 μM range, each in quadruplicate. […] IC50 values are derived by non-linear regression analysis using Prism 3.0 software (Graphpad Software). Other tyrosine kinases are assayed according to the same protocol after titrating amount of the enzyme to provide optimal signal-to-noise ratio and no more than 30% of total ATP consumption in the reaction conditions used.
(§4) The IGF1R tyrosine kinase is assayed in Phosphotyrosine (PT66 or PT 100) AlphaScreen chemiluminescent assay (PerkinElmer) according to the manufacturerer's recommendations. Each kinase reaction mixture consists of a total volume of 15 μl and contains 0.1-1 ng of the enzyme, 7 ng of biotinylated poly(Glu-Tyr) (Cis-Bio), 10 μM of ATP and variable concentrations of test compounds. The mixtures also contain 50 mM Tris-HCl, pH 7.5; 5 mM MgCl2; 5 mM MnCl2; 2 mM DTT and 0.01% Tween 20. The reaction mixtures are incubated at room temperature for 30 minutes. Ten (10) μl of the mixture of […] and donor beads (as supplied by the manufacturer) is then added to the reaction and the incubation is continued for an additional 60 minutes.

K562 = assay: Cell proliferation inhibition, Cell Titer-Glo, K562; type: cell-based; conditions: Homo sapiens; cell proliferation assay, K562 cells
Source text: as §1

Alk = target: T2, Alk (Homo sapiens, UniProt Q9UM73); assay: Tyrosine kinase assay (Kinase-Glo or AlphaScreen), Alk; conditions: biochemical tyrosine kinase assay
T2 construct: 6×His- or GST-tagged kinase domain fragments of the corresponding RTKs expressed in baculovirus system; host or cells: baculovirus system
Method: as §2, §3, §4

InsR = target: T3, InsR (Homo sapiens, UniProt P06213); assay: Tyrosine kinase assay (Kinase-Glo or AlphaScreen), InsR; conditions: biochemical tyrosine kinase assay
T3 construct: 6×His- or GST-tagged kinase domain fragments of the corresponding RTKs expressed in baculovirus system; host or cells: baculovirus system
Method: as §2, §3, §4

Karpas-299 = assay: Cell proliferation inhibition, Cell Titer-Glo, Karpas-299; type: cell-based; conditions: Homo sapiens; cell proliferation assay, Karpas-299 cells
Source text: as §1

IGF1R tyrosine kinase = target: T4, IGF1R tyrosine kinase (Homo sapiens, UniProt P08069); assay: IGF1R tyrosine kinase assay (Kinase-Glo ATP depletion or PT66/PT100 AlphaScreen); conditions: biochemical tyrosine kinase assay
T4 construct: 6×His- or GST-tagged kinase domain fragments of the corresponding RTKs expressed in baculovirus system; host or cells: baculovirus system
Method: as §2, §3, §4

T3 sequence (P06213 1023-1298 limits assumed, species assumed): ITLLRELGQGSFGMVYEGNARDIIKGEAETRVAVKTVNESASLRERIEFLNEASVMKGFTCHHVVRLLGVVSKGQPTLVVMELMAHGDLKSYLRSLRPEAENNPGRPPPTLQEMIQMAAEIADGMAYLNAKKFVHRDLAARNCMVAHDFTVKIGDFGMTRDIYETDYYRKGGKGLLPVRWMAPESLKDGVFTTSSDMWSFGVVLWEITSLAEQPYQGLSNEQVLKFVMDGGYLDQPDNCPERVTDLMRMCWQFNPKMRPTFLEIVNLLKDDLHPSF
T1 sequence (O60674 849-1124 limits assumed, species assumed): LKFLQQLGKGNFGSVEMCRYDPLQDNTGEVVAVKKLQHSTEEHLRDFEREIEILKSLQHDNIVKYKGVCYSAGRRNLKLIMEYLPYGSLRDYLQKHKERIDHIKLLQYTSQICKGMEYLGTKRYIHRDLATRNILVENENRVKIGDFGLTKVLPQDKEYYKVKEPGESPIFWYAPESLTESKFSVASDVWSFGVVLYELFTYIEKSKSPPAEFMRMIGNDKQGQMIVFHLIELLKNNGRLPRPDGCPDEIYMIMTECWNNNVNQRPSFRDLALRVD
T4 sequence (P08069 999-1274 limits assumed): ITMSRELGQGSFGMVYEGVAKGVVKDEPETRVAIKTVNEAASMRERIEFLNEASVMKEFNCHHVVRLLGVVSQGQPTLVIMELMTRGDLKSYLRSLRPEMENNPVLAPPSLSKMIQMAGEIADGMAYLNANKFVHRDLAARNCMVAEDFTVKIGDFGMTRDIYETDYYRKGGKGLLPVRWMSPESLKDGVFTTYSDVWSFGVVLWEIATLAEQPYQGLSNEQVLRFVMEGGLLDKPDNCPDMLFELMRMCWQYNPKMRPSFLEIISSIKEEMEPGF
T2 sequence (Q9UM73 1116-1392 limits assumed, species assumed): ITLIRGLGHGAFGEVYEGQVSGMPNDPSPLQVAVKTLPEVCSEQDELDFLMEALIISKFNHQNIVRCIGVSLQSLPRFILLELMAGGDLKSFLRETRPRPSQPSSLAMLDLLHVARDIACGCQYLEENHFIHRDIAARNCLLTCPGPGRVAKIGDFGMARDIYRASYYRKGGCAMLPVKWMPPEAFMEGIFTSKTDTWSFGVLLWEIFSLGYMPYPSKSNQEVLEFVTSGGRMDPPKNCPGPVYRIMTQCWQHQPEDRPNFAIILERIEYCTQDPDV

SMILES | IC50 (Ba/F3) [µM] | IC50 (Jak2) [µM] | IC50 (K562) [µM] | IC50 (Alk) [µM] | IC50 (InsR) [µM] | IC50 (Karpas-299) [µM] | IC50 (IGF1R tyrosine kinase) [nM]
Cc1ncccc1OC[C@H](O)CNc1ccnc(O)c1-c1nc2cc3c(cc2[nH]1)C(=O)N(C1CCN(C)CC1)C3=O [compound 71] | > 15 | 5 to 15 | > 15 | 5 to 15 | 0.5 to 5 | > 15 | 500 to 5000
CN(C)CCc1ncccc1OC[C@H](O)CNc1ccnc(O)c1-c1nc2cc3c(cc2[nH]1)C(=O)N(C1CCN(C)CC1)C3=O [compound 72] | > 15 | 0.5 to 5 | > 15 | 0.5 to 5 | 0.5 to 5 | > 15 | 500 to 5000
CN1CCC(N2C(=O)c3cc4nc(-c5c(NC[C@@H](O)COc6cccc(C(F)(F)F)c6)ccnc5O)[nH]c4cc3C2=O)CC1 [compound 73] | > 15 | 0.5 to 5 | 0.5 to 5 | 5 to 15 | 0.5 to 5 | 0.5 to 5 | 500 to 5000
CN1CCC(N2C(=O)c3cc4nc(-c5c(NC[C@@H](O)COc6ccc(F)c(Cl)c6)ccnc5O)[nH]c4cc3C2=O)CC1 [compound 74] | 0.5 to 5 | 0.5 to 5 | 0.5 to 5 | 5 to 15 | 0.5 to 5 | 0.5 to 5 | 500 to 5000
CN1CCC(N2C(=O)c3cc4nc(-c5c(NC[C@@H](O)COc6cccc(Cl)c6)ccnc5O)[nH]c4cc3C2=O)CC1 [compound 75] | 0.5 to 5 | 0.5 to 5 | 0.5 to 5 | 0.5 to 5 | 0.5 to 5 | 0.5 to 5 | 500 to 5000
CN1CCC(N2C(=O)c3cc4nc(-c5c(NC[C@@H](O)COc6cccc(Br)c6)ccnc5O)[nH]c4cc3C2=O)CC1 [compound 76] | 0.5 to 5 | 0.5 to 5 | 0.5 to 5 | 0.5 to 5 | 0.5 to 5 | 0.5 to 5 | 500 to 5000
CN1CCC(N2C(=O)c3cc4nc(-c5c(NC[C@@H](O)COc6ccc(C#N)c(Cl)c6)ccnc5O)[nH]c4cc3C2=O)CC1 [compound 77] | > 15 | 0.5 to 5 | > 15 | 0.5 to 5 | 5 to 15 | > 15 | 500 to 5000
CN1CCC(N2C(=O)c3cc4nc(-c5c(NC[C@@H](O)COc6ccc7c(c6)OCO7)ccnc5O)[nH]c4cc3C2=O)CC1 [compound 78] | > 15 | 0.5 to 5 | 5 to 15 | 0.5 to 5 | 0.5 to 5 | 5 to 15 | < 500
Cc1ccc(SC[C@H](O)CNc2cc[nH]c(=O)c2-c2nc3cc4c(cc3[nH]2)C(=O)N(C2CCN(C)CC2)C4=O)c(C)c1 [compound 79] | 5 to 15 | 0.5 to 5 | 0.5 to 5 | 0.5 to 5 | 0.5 to 5 | 5 to 15 | 500 to 5000
Cc1ccc(OC[C@H](O)CNc2cc[nH]c(=O)c2-c2nc3cc4c(cc3[nH]2)C(=O)N(C2CCN(C)CC2)C4=O)c(C(C)(C)C)c1 [compound 80] | > 15 | 5 to 15 | 5 to 15 | 0.5 to 5 | 5 to 15 | 5 to 15 | 500 to 5000
CSCc1cc(C)cc(C)c1OC[C@H](O)CNc1cc[nH]c(=O)c1-c1nc2cc3c(cc2[nH]1)C(=O)N(C1CCN(C)CC1)C3=O [compound 81] | 5 to 15 | 5 to 15 | > 15 | 0.5 to 5 | 5 to 15 | 5 to 15 | 500 to 5000
CN1CCC(N2C(=O)c3cc4nc(-c5c(NC[C@@H](O)COc6cccc7c6OC(F)C(F)(F)O7)cc[nH]c5=O)[nH]c4cc3C2=O)CC1 (stereo partly shown) [compound 82] | > 15 | 0.5 to 5 | > 15 | 0.5 to 5 | 0.5 to 5 | > 15 | < 500
CN1CCC(N2C(=O)c3cc4nc(-c5c(NC[C@@H](O)COc6cccc7c6OC(F)(F)C(F)O7)cc[nH]c5=O)[nH]c4cc3C2=O)CC1 (stereo partly shown) [compound 83] | > 15 | 0.5 to 5 | > 15 | 0.5 to 5 | < 0.5 | > 15 | < 500
Cc1ccc(OC[C@H](O)CNc2ccnc(O)c2-c2nc3cc4c(cc3[nH]2)C(=O)N(C2CCN(C)CC2)C4=O)c2c1CCC2 [compound 85] | 0.5 to 5 | 0.5 to 5 | 0.5 to 5 | 0.5 to 5 | < 0.5 | 0.5 to 5 | < 500
COc1ccc2c(c1)cc(C)n2C[C@H](O)CNc1ccnc(O)c1-c1nc2cc3c(cc2[nH]1)C(=O)N(C1CCN(C)CC1)C3=O [compound 100] | > 15 | 0.5 to 5 | 5 to 15 | < 0.5 | 0.5 to 5 | 5 to 15 | 500 to 5000
CN1CCC(N2C(=O)c3cc4nc(-c5c(NC[C@@H](O)COc6cccc7[nH]ccc67)ccnc5O)[nH]c4cc3C2=O)CC1 [compound 101] | > 15 | 0.5 to 5 | > 15 | < 0.5 | < 0.5 | > 15 | < 500
Cc1ccc(OC[C@H](O)CNc2ccnc(O)c2-c2nc3cc4c(cc3[nH]2)C(=O)N([C@@H]2CCCN(C)C2)C4=O)c(C)c1 [compound 102] | > 15 | > 15 | > 15 | > 15 | 5 to 15 | 5 to 15 | < 500
Cc1ccc(OC[C@H](O)CNc2ccnc(O)c2-c2nc3cc4c(cc3[nH]2)C(=O)N([C@H]2CCCN(C)C2)C4=O)c(C)c1 [compound 103] | 0.5 to 5 | 5 to 15 | 0.5 to 5 | > 15 | 5 to 15 | 0.5 to 5 | < 500
Cc1ccc(OCC(O)CNc2cc[nH]c(=O)c2-c2nc3cc4c(cc3[nH]2)C(=O)N(C2CCN(C)CC2)C4=O)cc1C (stereo not shown) [compound 104] | > 15 | 5 to 15 | > 15 | 5 to 15 | < 0.5 | > 15 | 500 to 5000
